# Test results from EPA's ToxValDB 9.5.
# Where “and” joins values, the source holds several entries; their conditions need not be identical. Equal values may be shown once.
# How the values were obtained:
# Rattus norvegicus [1] = conditions: for LEL: uterotrophic, Active; for NOEL: Hershberger, gavage
# Mus musculus = conditions: uterotrophic, Active
# Rattus norvegicus [2] = conditions: chronic, M/F
# Rattus norvegicus [3] = conditions: subchronic, oral, diet, M/F
# Rattus norvegicus [4] = conditions: chronic
# [5] = duration: 0 days, injection, intraperitoneal
# [6] = duration: 1 days, injection, intraperitoneal
# [7] = duration: 3 days, injection, intraperitoneal
# [8] = duration: 4 days, injection, subcutaneous
# [9] = duration: 1 days, injection, subcutaneous
# [10] = duration: 1.2 days, injection, subcutaneous
# [11] = duration: 10 days, injection, subcutaneous
# [12] = duration: 14 days, injection, subcutaneous
# [13] = duration: 2 years, oral, diet, reduced weight gains hematological females
compound,measurement,setting,value
CC/C(=C(/CC)c1ccc(O)cc1)c1ccc(O)cc1 [Diethylstilbestrol],LEL,Rattus norvegicus [1]; [5],0.05 mg
same,LEL,"Rattus norvegicus [1]; duration: 1 days, dermal",0.5 mg/L
same,LEL,Rattus norvegicus [1]; [6],0.01 mg/kg-day
same,LEL,Rattus norvegicus [1]; [7],0.01 mg/kg-day
same,LEL,Rattus norvegicus [1]; [8],0.01 mg/day
same,LEL,"Rattus norvegicus [1]; duration: 4 days, oral, diet",0.005 ppm and 0.01 ppm
same,LEL,"Rattus norvegicus [1]; duration: 7 days, oral",0.0009 mg/kg-day
same,LEL,"Rattus norvegicus [1]; duration: 8 days, injection, intraperitoneal",0.01 mg/kg-day
same,LEL,Mus musculus; [6],0.0005 mg/kg-day
same,LEL,Mus musculus; [9],0.00045 mg/animal
same,LEL,Mus musculus; [10],0.00045 mg/animal
same,LEL,Mus musculus; [7],0.1 mg/kg-day
same,LEL,"Mus musculus; duration: 3 days, oral",0.02 mg/kg-day
same,LEL,"Mus musculus; duration: 4 days, oral",0.0006 mg/day
same,LEL,"Mus musculus; duration: 5 days, oral, diet",0.004 ppm
same,LEL,"Mus musculus; duration: 6 days, oral, diet",3.6e-05 mg and 5e-05 mg/day
same,LEL,"Mus musculus; duration: 9 days, injection, subcutaneous",0.5 mg/kg-day
same,LEL,"Mus musculus; duration: 9 days, oral, diet",0.004 ppm
same,LEL,Mus musculus; [11],0.0001 mg/day
same,LEL,"Mus musculus; duration: 11 days, oral, diet",0.004 ppm
same,LEL,"Mus musculus; duration: 42 days, injection, subcutaneous",0.01 mg/kg-day
same,LEL,Mus musculus; oral,0.002 mg/kg-day
COC(=O)c1ccc(C(=O)OC)cc1 [Dimethyl terephthalate],LOAEL,"Rattus norvegicus [2]; oral, diet, chronic kidney inflammation",125 mg/kg-day
same,NOAEL,"Rattus norvegicus [3]; duration: 90 days, Body Weight Changes: Weight gain decrease + Histopathology: Liver: Hepatocyte hypertrophy, diffuse",480 mg/kg-day
same,LOAEL,"Rattus norvegicus [4]; duration: 103 weeks, oral, diet, Kidney: Inflammation",125 mg/kg-day
O=c1c(-c2ccc(O)cc2)coc2cc(O)cc(O)c12 [Genistein],NOEL,"Rattus norvegicus [3]; Wistar, Body Weight Changes: decrease + Food Consumption: decrease + Hematology: RBC decrease, Ret increase, , Hgb decrease + Blood Chemistry: gamma…",50 mg/kg-day
same,LEL,Rattus norvegicus [1]; [5],1.25 mg
same,LEL,Rattus norvegicus [1]; [6],0.4 mg
same,LEL,"Rattus norvegicus [1]; duration: 3.5 days, injection, subcutaneous",1.25 mg/day
same,LEL,"Rattus norvegicus [1]; duration: 4 days, oral",100 mg/kg-day
same,LEL,"Rattus norvegicus [1]; duration: 5 days, oral, diet",375 mg/kg-day
same,LEL,"Rattus norvegicus [1]; duration: 7 days, oral",60 mg/kg-day
same,LEL,Rattus norvegicus [1]; [12],250 mg/kg-day
same,LEL,"Rattus norvegicus [1]; duration: 30 days, oral",125 mg/kg-day
same,LEL,"Mus musculus; duration: 0.17 days, injection, subcutaneous",0.00027 mg
same,LEL,Mus musculus; [7],1.25 mg/day
same,LEL,Mus musculus; [8],2 mg/day
same,LEL,"Mus musculus; duration: 4 days, oral",100 mg/kg-day
same,LEL,"Mus musculus; duration: 4 days, oral, diet",2.5 mg/day
same,LEL,"Mus musculus; duration: 6 days, oral, diet",5.77 mg
same,LEL,"Mus musculus; duration: 7 days, oral",200 mg/kg-day
same,LEL,Mus musculus; [11],0.5 mg/day
same,LEL,Mus musculus; [12],2 mg/day and 3 mg/day and 5 mg/day
same,LEL,"Mus musculus; duration: 28 days, injection, subcutaneous",25 mg/kg-day
S=C([S-])NCCNC(=S)[S-].S=C([S-])NCCNC(=S)[S-].[Mn+2].[Zn+2] [Mancozeb],NOEL,"Rattus norvegicus [4]; duration: 90 weeks, oral, diet, Thyroid: Goitrogenic effects",2.9 mg/kg-day
CCOP(=O)(/N=C1\SCC(C)S1)OCC (centres undefined) [Mephosfolan],NOEL,"Rattus norvegicus [4]; duration: 17 weeks, oral, diet, Blood: Decreased cholinesterase activity + Brain: Decreased cholinesterase activity + Erythrocytes: Decreased cholinesterase activity + …",0.09 mg/kg-day
O=C(Oc1ccccc1)c1ccccc1O [Phenyl salicylate],LEL,"Mus musculus; duration: 3 days, oral",33.3 mg/kg-day
CC(=O)[O][Hg][c]1ccccc1 [Phenylmercuric acetate],LOAEL,"Rattus norvegicus [2]; oral, renal damage",0.042 mg/kg-day
same,NOAEL,"Rattus norvegicus [2]; oral, renal damage",0.0084 mg/kg-day
same,NOAEL,"Rattus norvegicus [4]; duration: 2 years, oral, diet, Kidney: Damage",0.0084 mg/kg-day
CCNc1nc(Cl)nc(NCC)n1 [Simazine],LOAEL,Rattus norvegicus [2]; [13],5.3 mg/kg-day
same,NOAEL,Rattus norvegicus [2]; [13],0.52 mg/kg-day
same,NOAEL,"Rattus norvegicus [4]; duration: 2 years, oral, diet, Blood: Hematological effects + Whole body: Decreased weight gain",0.52 mg/kg-day
same,NOEL,"Rattus norvegicus [1]; duration: 7 days, oral, Wistar, inactive + Negative + neither + AST wt decreased at 75 and above / doses above 75 associated with >10% decrease in body wt / cite a …",6.25 mg/kg-day
same,NOEL,"Rattus norvegicus [1]; duration: 10 days, oral, Sprague-Dawley, inactive + Negative + Negative + neither + AST wt decreased at 75 and above / doses above 75 associated with >10% decrease in body wt",25 mg/kg-day
O=C(O)Cc1cc(I)c(Oc2ccc(O)c(I)c2)c(I)c1 [Tiratricol],LEL,"Mus musculus; duration: 7 days, injection, subcutaneous",1000 mg/kg-day
same,LEL,"Mus musculus; duration: 7 days, oral",1000 mg/kg-day
C=CBr [Vinyl bromide],LOAEL,"Rattus norvegicus [2]; inhalation, hypertrophy, basophilic and eosinophilic foci, in the liver",43 mg/m3
same,LOAEL,"Rattus norvegicus [4]; duration: 24 months, inhalation, intermittent, Liver: Basophilic foci + Liver: Eosinophilic foci + Liver: Hypertrophy",42.4 mg/m3
S=C([S-])NCCNC(=S)[S-].[Zn+2] [Zineb],LOAEL,"Rattus norvegicus [2]; oral, thyroid hyperplasia",25 mg/kg-day
same,LOAEL,"Rattus norvegicus [4]; duration: 2 years, oral, diet, hyperplasia",25 mg/kg-day
C=C(C)c1ccccc1 [alpha-Methylstyrene],NOEL,"Rattus norvegicus [4]; duration: 197 days, inhalation, intermittent, Kidney: Increased weight + Liver: Increased weight",970 mg/m3
CC[C@H](c1ccc(O)cc1)[C@@H](CC)c1ccc(O)cc1 [meso-Hexestrol],LEL,Mus musculus; [9],0.00914 mg/animal
same,LEL,Mus musculus; [10],0.00914 mg/animal
